Source: patent US9428819B1, “Method for synthesizing noble metal nanoparticles using dead cancer cells” (KING SAUD UNIVERSITY, priority 2016, dated 2016)

Experiments:
Assay in all cases: Antimicrobial activity, diffusion Agar technique
Format in all cases: cell-based
Conditions in all cases: beyond the initial well diameter of 6 mm
[1] = system: Aspergillus fumigatus (RCMB 02567)
Experimental: (§1) The noble metal nanoparticles prepared by the present methods can be formulated into a composition effective as an antifungal and as an antibacterial agent (Gram positive and gram negative). […] The fungal and bacterial inhibition trial was conducted using the diffusion Agar technique. The data are expressed in the form of (M±S.D.): mean±standard deviation; wherein M represents the diameter of the inhibition zone, measured in millimeters (mm) beyond the initial well diameter of 6 mm.

[2] = system: Escherichia coli (RCMB 010054)
Experimental: as §1

[3] = system: Bacillis subtilis (RCMB 010068)
Experimental: as §1

[4] = system: Streptococcus pneumoniae (RCMB 010011)
Experimental: as §1

## C[C@@H]1[C@H](O)[C@@H](C)/C=C/C=C/C=C/C=C/C=C/C=C/C=C/[C@H](O[C@@H]2O[C@H](C)[C@@H](O)[C@H](N)[C@@H]2O)C[C@@H]2O[C@](O)(C[C@@H](O)C[C@@H](O)[C@H](O)CC[C@@H](O)C[C@@H](O)CC(=O)O[C@H]1C)C[C@H](O)[C@H]2C(=O)O [Amphotericin B]
[1]
  diameter of the inhibition zone (mean ± S.D.): 21.7 ± 1.5 mm

## Gentamicin
[2]
  diameter of the inhibition zone (mean ± S.D.): 20.3 ± 0.58 mm

## CC1(C)S[C@@H]2[C@H](NC(=O)[C@H](N)c3ccccc3)C(=O)N2[C@H]1C(=O)O [Ampicillin]
[3]
  diameter of the inhibition zone (mean ± S.D.): 31.3 ± 1.5 mm
[4]
  diameter of the inhibition zone (mean ± S.D.): 21.0 ± 1.0 mm
